Columns and labels:
[1] = system: loblolly pine embryogenic cell lines (J and K); experiment: Effect of brassinolide in post cryostorage recovery medium on embryo production and embryo production potential; type: cell-based; conditions: 0.1 μM in high casein Mi3
Protocol: Five J cell lines and five K lines were tested. For each cell line, 4 vials (2 post-cryo recovery media×2 replications) were retrieved from cryostorage. Recovered tissue from each vial was transferred to their respective fresh medium at 2 week intervals using a raft transfer method. Weight data was recorded for tissue derived from each vial at the 6th week after cryo-retrieval. At the 6th week, tissues from both reps of each treatment were pooled and maintained on their respective maintenance medium using a tissue dispersion method: 200 mg per sample in 1 ml liquid Mi3 medium dispersed by agitation and poured onto each culture plate. A total of 800 mg of tissue from each cell line×post-cryo media combination were plated on embryo development medium (4 reps of 200 mg/plate) to test embryo production capacity. Total tissue weight at each subculture was recorded to calculate the potential of each treatment for tissue bulk up and embryo production. Harvestable somatic embryos from each plate were recorded at 9 weeks of incubation on MSG embryo development medium (Tables 1 and 2). Embryo production data was analyzed separately for the J and K cell lines using PROCGLM procedure of SAS. Embryo production potential for each treatment was calculated by multiplying embryo production data by the total potential tissue produced in each cell line and treatment. The effect of brassinolide in the improved Mi3 bulk up medium on subsequent embryo production was tested. […] Since cell line×media treatment interaction was highly significant, data from each line was analyzed separately for each treatment.

[2] = system: loblolly pine embryogenic cell lines (J and K); experiment: Effect of brassinolide in post cryostorage recovery medium on tissue production; type: cell-based; conditions: 0.1 μM in high casein Mi3
From the text: This experiment addresses whether brassinolide in the post-cryogenic storage bulk up medium has a positive effect on tissue recovery and growth enabling faster tissue multiplication and bulk up; and whether there is a cell-line-by-treatment (with or without brassinolide) interaction that can be exploited to enable genotype screening to optimize the best combination for each cell line in terms of both tissue growth and subsequent somatic embryo production. Two post-cryostrorage recovery (bulk up) media treatments were tested: Treatment #1: Mi3 medium (Tables 1 and 2) with high (2.0 g/liter) casein (the improved medium) Treatment #2: The same high casein Mi3 with addition of 0.1 μM Brassinolide Five J cell lines and five K lines were tested. For each cell line, 4 vials (2 post-cryo recovery media×2 replications) were retrieved from cryostorage. Recovered tissue from each vial was transferred to their respective fresh medium at 2 week intervals using a raft transfer method. Weight data was recorded for tissue derived from each vial at the 6th week after cryo-retrieval. At the 6th week, tissues from both reps of each treatment were pooled and maintained on their respective maintenance medium using a tissue dispersion method: 200 mg per sample in 1 ml liquid Mi3 medium dispersed by agitation and poured onto each culture plate. A total of 800 mg of tissue from each cell line×post-cryo media combination were plated on embryo development medium (4 reps of 200 mg/plate) to test embryo production capacity. Total tissue weight at each subculture was recorded to calculate the potential of each treatment for tissue bulk up and embryo production. Harvestable somatic embryos from each plate were recorded at 9 weeks of incubation on MSG embryo development medium (Tables 1 and 2). Embryo production data was analyzed separately for the J and K cell lines using PROCGLM procedure of SAS. Embryo production potential for each treatment was calculated by multiplying embryo production data by the total potential tissue produced in each cell line and treatment.

With `CC(C)[C@H](C)[C@@H](O)[C@H](O)[C@@H](C)[C@H]1CC[C@H]2[C@@H]3COC(=O)[C@H]4C[C@H](O)[C@H](O)C[C@]4(C)[C@H]3CC[C@]12C` [brassinolide, Brassinolide] the “embryo production potential compared to the improved Mi3 without brassinolide” value ([1]; J cell lines) was 149%, the “embryo production potential compared to the improved Mi3 without brassinolide” value ([1]; K cell lines) was 136% and the “embryo production potential, higher compared to the control” value ([1]; both J and K lines) was > 35%. For the same compound, the “amount of tissue compared to the improved medium without brassinolide” value ([2]; J lines) was 127%, the “amount of tissue compared to the improved medium without brassinolide” value ([2]; K lines) was 191% and the tissue production ([2]; all 10 cell lines) was “produced highest amount of tissue”. The increase in growth ([2]; slow-recovering cell lines K10, K11 and J4) was “two to three-fold”.

— patent US20120276634A1, “SOMATIC EMBRYOGENESIS AND EMBRYO HARVESTING AND METHOD AND APPARATUS FOR PREPARING PLANT EMBRYOS FOR PLANT PRODUCTION” (ArborGen Inc., priority 2005, published 2012)
